Key:
Experiment in all cases: relative viability (nuclei count vs DMSO), 5 days (fraction); higher = more cells survive
[1] = tested on: ABC-1
Outline: (§1)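 Lung cancer cell lines in 1536-well plates were dosed by pin tool the day after seeding, either with one drug alone or with a fixed anchor-drug dose plus five library-drug doses (not always all listed) in √10 steps. After 5 days, cells were fixed and their nuclei stained in one step (final 0.05% Triton X-100, 1% formaldehyde, 1 ug/ml Hoechst), then counted on 4× images. Relative viability is the nuclei count in treated wells divided by that in vehicle wells. Values are medians of duplicate plates.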

[2] = tested on: COR-L23
Outline: as §1

[3] = tested on: EPLC-272H
Outline: as §1

[4] = tested on: HARA
Outline: as §1

[5] = tested on: HCC-15
Outline: as §1

[6] = tested on: HCC-78
Outline: as §1

[7] = tested on: LC-2-ad
Outline: as §1

[8] = tested on: LU99A
Outline: as §1

[9] = tested on: NCI-H1651
Outline: as §1

[10] = tested on: NCI-H1915
Outline: as §1

[11] = tested on: NCI-H1993
Outline: as §1

[12] = tested on: NCI-H2009
Outline: as §1

[13] = tested on: NCI-H2085
Outline: as §1

[14] = tested on: NCI-H2126
Outline: as §1

[15] = tested on: NCI-H2342
Outline: as §1

[16] = tested on: NCI-H2347
Outline: as §1

[17] = tested on: NCI-H358
Outline: as §1

[18] = tested on: NCI-H460
Outline: as §1

[19] = tested on: NCI-H522
Outline: as §1

[20] = tested on: NCI-H650
Outline: as §1

[21] = tested on: NCI-H838
Outline: as §1

[22] = tested on: PC-14
Outline: as §1

[23] = tested on: SW 1573
Outline: as §1

[24] = tested on: UMC-11
Outline: as §1

CC(C)Oc1cc(Nc2nc(N[C@@H](C)c3ccc(F)cn3)ncc2Cl)n[nH]1 [AZ23] + O=C(c1cc(Cc2n[nH]c(=O)c3ccccc23)ccc1F)N1CCN(C(=O)C2CC2)CC1 [Olaparib] (partner 8 µM)
relative viability ([1]; first compound 0.01 µM): 0.971
relative viability ([1]; first compound 0.03162 µM): 0.781
relative viability ([1]; first compound 0.3162 µM): 0.673
relative viability ([2]; first compound 0.01 µM): 0.272
relative viability ([2]; first compound 0.03162 µM): 0.365
relative viability ([2]; first compound 0.3162 µM): 0.34
relative viability ([3]; first compound 0.03162 µM): 0.563
relative viability ([3]; first compound 0.3162 µM): 0.901
relative viability ([4]; first compound 0.01 µM): 0.292
relative viability ([4]; first compound 0.03162 µM): 0.575
relative viability ([4]; first compound 0.3162 µM): 0.969
relative viability ([5]; first compound 0.01 µM): 1.02
relative viability ([5]; first compound 0.03162 µM): 0.698
relative viability ([5]; first compound 0.3162 µM): 0.747
relative viability ([6]; first compound 0.01 µM): 0.623
relative viability ([6]; first compound 0.03162 µM): 0.834
relative viability ([6]; first compound 0.3162 µM): 0.669
relative viability ([7]; first compound 0.01 µM): 0.811
relative viability ([7]; first compound 0.03162 µM): 0.772
relative viability ([7]; first compound 0.3162 µM): 0.824
relative viability ([8]; first compound 0.01 µM): 0.233
relative viability ([8]; first compound 0.03162 µM): 0.237
relative viability ([8]; first compound 0.3162 µM): 0.328
relative viability ([9]; first compound 0.01 µM): 0.182
relative viability ([9]; first compound 0.03162 µM): 0.166
relative viability ([9]; first compound 0.3162 µM): 0.19
relative viability ([10]; first compound 0.01 µM): 0.259
relative viability ([10]; first compound 0.03162 µM): 0.253
relative viability ([10]; first compound 0.3162 µM): 0.275
relative viability ([11]; first compound 0.01 µM): 1.08
relative viability ([11]; first compound 0.03162 µM): 1.07
relative viability ([11]; first compound 0.3162 µM): 1.01
relative viability ([12]; first compound 0.01 µM): 0.814
relative viability ([12]; first compound 0.03162 µM): 0.769
relative viability ([12]; first compound 0.3162 µM): 0.79
relative viability ([13]; first compound 0.01 µM): 0.784
relative viability ([13]; first compound 0.03162 µM): 0.884
relative viability ([13]; first compound 0.3162 µM): 0.791
relative viability ([14]; first compound 0.01 µM): 0.996
relative viability ([14]; first compound 0.03162 µM): 0.924
relative viability ([14]; first compound 0.3162 µM): 0.888
relative viability ([15]; first compound 0.01 µM): 0.413
relative viability ([15]; first compound 0.03162 µM): 0.473
relative viability ([15]; first compound 0.3162 µM): 0.399
relative viability ([16]; first compound 0.01 µM): 0.579
relative viability ([16]; first compound 0.03162 µM): 0.622
relative viability ([16]; first compound 0.3162 µM): 0.604
relative viability ([17]; first compound 0.01 µM): 0.72
relative viability ([17]; first compound 0.03162 µM): 0.667
relative viability ([17]; first compound 0.3162 µM): 0.664
relative viability ([18]; first compound 0.01 µM): 0.24
relative viability ([18]; first compound 0.03162 µM): 0.518
relative viability ([18]; first compound 0.3162 µM): 0.481
relative viability ([19]; first compound 0.01 µM): 0.667
relative viability ([19]; first compound 0.03162 µM): 0.598
relative viability ([19]; first compound 0.3162 µM): 0.641
relative viability ([20]; first compound 0.01 µM): 0.483
relative viability ([20]; first compound 0.03162 µM): 0.454
relative viability ([20]; first compound 0.3162 µM): 0.357
relative viability ([21]; first compound 0.01 µM): 0.905
relative viability ([21]; first compound 0.03162 µM): 0.964
relative viability ([21]; first compound 0.3162 µM): 0.721
relative viability ([22]; first compound 0.01 µM): 0.189
relative viability ([22]; first compound 0.03162 µM): 0.36
relative viability ([22]; first compound 0.3162 µM): 0.296
relative viability ([23]; first compound 0.01 µM): 0.649
relative viability ([23]; first compound 0.03162 µM): 0.613
relative viability ([23]; first compound 0.3162 µM): 0.508
relative viability ([24]; first compound 0.01 µM): 0.392
relative viability ([24]; first compound 0.03162 µM): 0.422
relative viability ([24]; first compound 0.3162 µM): 0.372

C[C@@H]1CN(CC(=O)Nc2ccc3c(c2)Cc2cccc(-c4cc(=O)cc(N5CCOCC5)o4)c2S3)C[C@H](C)O1 + O=C(CCCCCCC(=O)Nc1ccccc1)NO [Vorinostat] (partner 1 µM)
relative viability ([1]; first compound 0.04 µM): 0.917
relative viability ([1]; first compound 0.1265 µM): 1.14
relative viability ([1]; first compound 0.4 µM): 1.23
relative viability ([1]; first compound 4 µM): 1.27
relative viability ([2]; first compound 0.04 µM): 0.433
relative viability ([2]; first compound 0.1265 µM): 0.451
relative viability ([2]; first compound 0.4 µM): 0.473
relative viability ([2]; first compound 4 µM): 0.333
relative viability ([3]; first compound 0.04 µM): 0.457
relative viability ([3]; first compound 0.1265 µM): 0.414
relative viability ([3]; first compound 0.4 µM): 0.407
relative viability ([3]; first compound 4 µM): 0.307
relative viability ([4]; first compound 0.04 µM): 0.511
relative viability ([4]; first compound 0.1265 µM): 0.61
relative viability ([4]; first compound 0.4 µM): 0.445
relative viability ([4]; first compound 4 µM): 0.436
relative viability ([5]; first compound 0.04 µM): 0.825
relative viability ([5]; first compound 0.1265 µM): 0.769
relative viability ([5]; first compound 0.4 µM): 0.729
relative viability ([5]; first compound 4 µM): 0.663
relative viability ([6]; first compound 0.04 µM): 0.455
relative viability ([6]; first compound 0.1265 µM): 0.417
relative viability ([6]; first compound 0.4 µM): 0.46
relative viability ([6]; first compound 4 µM): 0.4
relative viability ([7]; first compound 0.04 µM): 0.639
relative viability ([7]; first compound 0.1265 µM): 0.679
relative viability ([7]; first compound 0.4 µM): 0.712
relative viability ([7]; first compound 4 µM): 0.606
relative viability ([8]; first compound 0.04 µM): 0.444
relative viability ([8]; first compound 0.1265 µM): 0.582
relative viability ([8]; first compound 0.4 µM): 0.544
relative viability ([8]; first compound 4 µM): 0.595
relative viability ([9]; first compound 0.04 µM): 0.541
relative viability ([9]; first compound 0.1265 µM): 0.535
relative viability ([9]; first compound 0.4 µM): 0.538
relative viability ([9]; first compound 4 µM): 0.559
relative viability ([10]; first compound 0.04 µM): 0.434
relative viability ([10]; first compound 0.1265 µM): 0.538
relative viability ([10]; first compound 0.4 µM): 0.537
relative viability ([10]; first compound 4 µM): 0.421
relative viability ([11]; first compound 0.04 µM): 0.911
relative viability ([11]; first compound 0.1265 µM): 0.78
relative viability ([11]; first compound 0.4 µM): 0.626
relative viability ([11]; first compound 4 µM): 0.735
relative viability ([12]; first compound 0.04 µM): 0.635
relative viability ([12]; first compound 0.1265 µM): 0.772
relative viability ([12]; first compound 0.4 µM): 0.664
relative viability ([12]; first compound 4 µM): 0.497
relative viability ([13]; first compound 0.04 µM): 0.814
relative viability ([13]; first compound 0.1265 µM): 0.782
relative viability ([13]; first compound 0.4 µM): 0.69
relative viability ([13]; first compound 4 µM): 0.667
relative viability ([14]; first compound 0.04 µM): 0.853
relative viability ([14]; first compound 0.1265 µM): 0.768
relative viability ([14]; first compound 0.4 µM): 0.759
relative viability ([14]; first compound 4 µM): 0.701
relative viability ([15]; first compound 0.04 µM): 0.609
relative viability ([15]; first compound 0.1265 µM): 0.652
relative viability ([15]; first compound 0.4 µM): 0.668
relative viability ([15]; first compound 4 µM): 0.703
relative viability ([16]; first compound 0.04 µM): 0.564
relative viability ([16]; first compound 0.1265 µM): 0.623
relative viability ([16]; first compound 0.4 µM): 0.562
relative viability ([16]; first compound 4 µM): 0.533
relative viability ([17]; first compound 0.04 µM): 0.724
relative viability ([17]; first compound 0.1265 µM): 0.589
relative viability ([17]; first compound 0.4 µM): 0.687
relative viability ([17]; first compound 4 µM): 0.261
relative viability ([18]; first compound 0.04 µM): 0.69
relative viability ([18]; first compound 0.1265 µM): 0.738
relative viability ([18]; first compound 0.4 µM): 0.704
relative viability ([18]; first compound 4 µM): 0.203
relative viability ([19]; first compound 0.04 µM): 0.539
relative viability ([19]; first compound 0.1265 µM): 0.696
relative viability ([19]; first compound 0.4 µM): 0.876
relative viability ([19]; first compound 4 µM): 0.766
relative viability ([20]; first compound 0.04 µM): 0.364
relative viability ([20]; first compound 0.1265 µM): 0.386
relative viability ([20]; first compound 0.4 µM): 0.39
relative viability ([20]; first compound 4 µM): 0.414
relative viability ([21]; first compound 0.04 µM): 0.751
relative viability ([21]; first compound 0.1265 µM): 0.646
relative viability ([21]; first compound 0.4 µM): 0.633
relative viability ([21]; first compound 4 µM): 0.535
relative viability ([22]; first compound 0.04 µM): 0.75
relative viability ([22]; first compound 0.1265 µM): 0.689
relative viability ([22]; first compound 0.4 µM): 0.705
relative viability ([22]; first compound 4 µM): 0.61
relative viability ([23]; first compound 0.04 µM): 0.551
relative viability ([23]; first compound 0.1265 µM): 0.989
relative viability ([23]; first compound 0.4 µM): 0.909
relative viability ([23]; first compound 4 µM): 0.769
relative viability ([24]; first compound 0.04 µM): 0.378
relative viability ([24]; first compound 0.1265 µM): 0.433
relative viability ([24]; first compound 0.4 µM): 0.441
relative viability ([24]; first compound 4 µM): 0.366

Reference: the supplement of paper PMC10307832
